# Columns and labels:
# Format in all cases: cell-based
# C. pylori NCTC 11916 = assay: MIC, agar-plate dilution method, test strain A; conditions: Helicobacter pylori, NCTC11916, 72 h, Brucella agar, 37° C., 3 days
# Procedure: (§1) The minimum inhibitory concentration (MIC) of each compound was determined by the agar-plate dilution method based on the standard method advocated by Japan Society of Chemotherapy [cf: Chemotherapy, Jan. '81, p. 76]. The volume of agar medium per plate was 20 ml. Each of the test compounds was dissolved in dimethylsulfoxide at a concentration of 80 mg/ml or 40 mg/ml, and diluted 10 times with sterile distilled water. Furthermore, the aqueous solution of 8 mg/ml or 4 mg/ml was diluted serially 2-fold with sterile distilled water. To 2 ml of the diluted solution was added 18 ml of Brucella agar (BBL Microbiology Systems, Becton Dickinson and Co., Cockeysville, Md. 21030) containing 7% defibrinated horse blood (manufactured by Nippon Bio-supp. Center) and mixed well. Test strains frozen at -80° C. in Brucella broth (BBL) containing 10% horse serum were thawed and inoculated on a Brucella agar slant medium containing 7% defibrinated horse blood. The medium was incubated anaerobically at 37° C. for 3 days in a jar containing a piece of sponge sufficiently impregnated with water and Campy Pak™ (BBL). The organisms grown on the slant medium were collected and suspended in a Brucella broth to correspond to the turbidity of about 10^8 CFU/ml of common bacteria. One platinum loop of inoculum was streaked on the medium plates for determination. The plates were incubated under the same conditions as described above.
# C. pylori CPY 00111 = assay: MIC, agar-plate dilution method, test strain D; conditions: Helicobacter pylori, CPY00111, 72 h, Brucella agar, 37° C., 3 days
# Procedure: as §1
# C. pylori KS 13 = assay: MIC, agar-plate dilution method, test strain E; conditions: Helicobacter pylori, KS13, 72 h, Brucella agar, 37° C., 3 days
# Procedure: as §1
# C. pylori CLO 1 = assay: MIC, agar-plate dilution method, test strain F; conditions: Helicobacter pylori, CLO1, 72 h, Brucella agar, 37° C., 3 days
# Procedure: as §1
# [1] = tested on: A. calcoaceticus IFO 13006; assay: MIC, standard agar-plate dilution method, aerobic common bacteria; conditions: Acinetobacter calcoaceticus, IFO13006
# Source text: (§2) Antibacterial activities of some compounds of the present invention against aerobic common bacteria were examined.
# C. diphtheriae Tront = assay: as above; conditions: Corynebacterium diphtheriae
# Source text: as §2
# C. freundii IFO 12681 = assay: as above; conditions: Citrobacter freundii, IFO12681
# Source text: as §2
# C. freundii TN 474 = assay: as above; conditions: Citrobacter freundii, TN474
# Source text: as §2
# E. cloacae IFO 12937 = assay: as above; conditions: Enterobacter cloacae, IFO12937
# Source text: as §2
# E. cloacae TN 583 = assay: as above; conditions: Enterobacter cloacae, TN583
# Source text: as §2
# E. coli 0-111 = assay: as above; conditions: Escherichia coli, 0111
# Source text: as §2
# E. coli NIHJ JC-2 = assay: as above; conditions: Escherichia coli, NIHJJC2
# Source text: as §2
# E. coli T 7 = assay: as above; conditions: Escherichia coli, T7
# Source text: as §2
# K. oxytoca TN 1711 = assay: as above; conditions: Klebsiella oxytoca, TN1711
# Source text: as §2
# K. pneumoniae DT = assay: as above; conditions: Klebsiella pneumoniae
# Source text: as §2
# M. morganii IFO 3168 = assay: as above; conditions: Morganella morganii, IFO3168
# Source text: as §2
# P. aeruginosa B 184 = assay: as above; conditions: Pseudomonas aeruginosa, B184
# Source text: as §2
# P. aeruginosa GN 3407 = assay: as above; conditions: Pseudomonas aeruginosa, GN3407
# Source text: as §2
# P. aeruginosa IFO 3455 = assay: as above; conditions: Pseudomonas aeruginosa, IFO3455
# Source text: as §2
# P. aeruginosa P 9 = assay: as above; conditions: Pseudomonas aeruginosa, P9
# Source text: as §2
# P. aeruginosa U 31 = assay: as above; conditions: Pseudomonas aeruginosa, U31
# Source text: as §2
# P. vulgaris IFO 3988 = assay: as above; conditions: Proteus vulgaris, IFO3988
# Source text: as §2
# S. aureus 1840 = assay: as above; conditions: Staphylococcus aureus
# Source text: as §2
# S. aureus 308 A-1 = assay: as above; conditions: Staphylococcus aureus, 308A1
# Source text: as §2
# S. aureus C 260 = assay: as above; conditions: Staphylococcus aureus, C260
# Source text: as §2
# S. aureus FDA 209P = assay: as above; conditions: Staphylococcus aureus, FDA209P
# Source text: as §2
# S. aureus J-108 = assay: as above; conditions: Staphylococcus aureus, J108
# Source text: as §2
# S. aureus N-241 = assay: as above; conditions: Staphylococcus aureus, N241
# Source text: as §2
# S. aureus P 114 = assay: as above; conditions: Staphylococcus aureus, P114
# Source text: as §2
# S. faecium IFO 3128 = assay: as above; conditions: Enterococcus faecium, IFO3128
# Source text: as §2
# S. marcecens B 315 = assay: as above
# Source text: as §2
# S. marcecens IFO 12648 = assay: as above
# Source text: as §2
# S. mitis America = assay: as above; conditions: Streptococcus mitis
# Source text: as §2
# S. pneumoniae Type 1 = assay: as above; conditions: Streptococcus pneumoniae, TYPE1
# Source text: as §2
# S. pyogenes E-14 = assay: as above; conditions: Streptococcus pyogenes, E14
# Source text: as §2
# S. pyogenes S-8 = assay: as above; conditions: Streptococcus pyogenes, S8
# Source text: as §2
Structure (SMILES),MIC (C. pylori NCTC 11916) [µg/mL],MIC (C. pylori CPY 00111) [µg/mL],MIC (C. pylori KS 13) [µg/mL],MIC (C. pylori CLO 1) [µg/mL],MIC [1] [µg/mL],MIC (C. diphtheriae Tront) [µg/mL],MIC (C. freundii IFO 12681) [µg/mL],MIC (C. freundii TN 474) [µg/mL],MIC (E. cloacae IFO 12937) [µg/mL],MIC (E. cloacae TN 583) [µg/mL],MIC (E. coli 0-111) [µg/mL],MIC (E. coli NIHJ JC-2) [µg/mL],MIC (E. coli T 7) [µg/mL],MIC (K. oxytoca TN 1711) [µg/mL],MIC (K. pneumoniae DT) [µg/mL],MIC (M. morganii IFO 3168) [µg/mL],MIC (P. aeruginosa B 184) [µg/mL],MIC (P. aeruginosa GN 3407) [µg/mL],MIC (P. aeruginosa IFO 3455) [µg/mL],MIC (P. aeruginosa P 9) [µg/mL],further results
Cc1c(OCC(F)(F)F)ccnc1C[S+]([O-])c1nc2ccccc2[nH]1 (stereo not drawn) [Compound 1],12.5,6.25,6.25,6.25,> 400,> 400,> 400,> 400,> 400,> 400,> 400,> 400,> 400,> 400,> 400,> 400,> 400,> 400,> 400,> 400,MIC (P. aeruginosa U 31): > 400 µg/mL; MIC (P. vulgaris IFO 3988): > 400 µg/mL; MIC (S. aureus 1840): > 400 µg/mL; MIC (S. aureus 308 A-1): > 400 µg/mL; MIC (S. aureus C 260): > 400 µg/mL; MIC (S. aureus FDA 209P): > 400 µg/mL; MIC (S. aureus J-108): > 400 µg/mL; MIC (S. aureus N-241): > 400 µg/mL; MIC (S. aureus P 114): > 400 µg/mL; MIC (S. faecium IFO 3128): > 400 µg/mL; MIC (S. marcecens B 315): > 400 µg/mL; MIC (S. marcecens IFO 12648): > 400 µg/mL; MIC (S. mitis America): > 400 µg/mL; MIC (S. pneumoniae Type 1): > 400 µg/mL; MIC (S. pyogenes E-14): > 400 µg/mL; MIC (S. pyogenes S-8): > 400 µg/mL
COc1ccc2[nH]c([S+]([O-])Cc3ncc(C)c(OC)c3C)nc2c1 (stereo not drawn) [Compound 2],25,12.5,25,25,> 400,> 400,> 400,> 400,> 400,> 400,> 400,> 400,40,> 400,> 400,> 400,> 400,> 400,> 400,> 400,MIC (P. aeruginosa U 31): > 400 µg/mL; MIC (P. vulgaris IFO 3988): > 400 µg/mL; MIC (S. aureus 1840): > 400 µg/mL; MIC (S. aureus 308 A-1): > 400 µg/mL; MIC (S. aureus C 260): > 400 µg/mL; MIC (S. aureus FDA 209P): > 400 µg/mL; MIC (S. aureus J-108): > 400 µg/mL; MIC (S. aureus N-241): > 400 µg/mL; MIC (S. aureus P 114): > 400 µg/mL; MIC (S. faecium IFO 3128): > 400 µg/mL; MIC (S. marcecens B 315): > 400 µg/mL; MIC (S. marcecens IFO 12648): > 400 µg/mL; MIC (S. mitis America): > 400 µg/mL; MIC (S. pneumoniae Type 1): > 400 µg/mL; MIC (S. pyogenes E-14): > 400 µg/mL; MIC (S. pyogenes S-8): > 400 µg/mL
Cc1c(OCC(F)(F)F)ccnc1CSc1nc2ccccc2[nH]1 [Compound 6],6.25,3.13,12.5,25,> 400,> 400,> 400,> 400,> 400,> 400,40,> 400,> 400,> 400,> 400,> 400,> 400,> 400,> 400,> 400,MIC (P. aeruginosa U 31): > 400 µg/mL; MIC (P. vulgaris IFO 3988): > 400 µg/mL; MIC (S. aureus 1840): > 400 µg/mL; MIC (S. aureus 308 A-1): > 400 µg/mL; MIC (S. aureus C 260): > 400 µg/mL; MIC (S. aureus FDA 209P): > 400 µg/mL; MIC (S. aureus J-108): > 400 µg/mL; MIC (S. aureus N-241): > 400 µg/mL; MIC (S. aureus P 114): > 400 µg/mL; MIC (S. faecium IFO 3128): > 400 µg/mL; MIC (S. marcecens B 315): > 400 µg/mL; MIC (S. marcecens IFO 12648): > 400 µg/mL; MIC (S. mitis America): > 400 µg/mL; MIC (S. pneumoniae Type 1): > 400 µg/mL; MIC (S. pyogenes E-14): > 400 µg/mL; MIC (S. pyogenes S-8): > 400 µg/mL

# Source: US5013743A, “Selective antibacterial agent against campytobacter” (Takeda Chemical Industries, Ltd., priority 1989, dated 1991)
